From publication PMC7222207, “Characterization of a CholesteroNitrone (ISQ-201), a Novel Drug Candidate for the Treatment of Ischemic Stroke” (Antioxidants, 2020)
Like-named read-outs stand apart in the source and are kept apart here.

Tests used:
[1] = test system: transient forebrain ischemia, hippocampal CA1 and cortical neurons; experiment: Global cerebral ischemia (4VO), neuronal apoptosis by TUNEL assay; assay type: in vivo, male Wistar rats; parameters: maximum neuroprotection (Emax), TUNEL assay: dose or concentration left out as unconfirmed; details: for maximum neuroprotection (Emax), TUNEL assay: iv at reperfusion onset
Method: (§1) Transient forebrain ischemia was induced in adult male Wistar rats (10–12 weeks, Charles River) by the standard four-vessel occlusion model (4VO) described previously. Briefly, both vertebral arteries were irreversibly occluded by electrocoagulation under anesthesia, with a mixture of atropine, ketamine, and diazepam (0.25, 62.5, and 5 mg/kg, respectively) delivered through intraperitoneal injection. After 24 h, ischemia was induced by carotid occlusion with atraumatic clips, for 15 min, and then the clips were removed from the carotid arteries to allow reperfusion. Body temperature was maintained at 37 °C during the surgical procedure. The animals were studied after 5 days of reperfusion (R5d) after which they were sacrificed. Sham control animals were prepared in the same way, without carotid occlusion. We performed a power analysis (http://www.biomath.info/power/ttest.htm) to determine the sample size. Significance level and statistical power were set at 0.05 and 0.8 (80%), respectively, which afforded a sample size of […] subjects per group. The treatments were administered with concealed allocation, and in randomized order, according to a computer-generated randomization program. Ischemic animals were treated with a vehicle solution (saline/ethanol, 90:10 vol/vol) or nitrone ISQ-201, dissolved in a vehicle solution through a single intravenous tail injection, when the carotid arteries were unclamped for reperfusion. In therapeutic window experiments, the animals were treated once at the reperfusion onset or at the set reperfusion time points, after ischemia. For the administration, at 6 h and 48 h of reperfusion after ischemia, the animals were anesthetized with isoflurane for 2–3 min and 5 min, respectively, prior to the treatment administration. An independent researcher prepared the treatments for each animal, according to the randomization schedule. Data of each experimental group were normalized to each vehicle control group. All procedures associated with animal experiments were approved by the Animal Care Ethics Committee of the Hospital Universitario Ramón y Cajal (Madrid, Spain, code no. 06/2015) and were performed according to the ARRIVE guidelines.
After 5 days of reperfusion (R5d), the animals were euthanized by transcardiac perfusion, under deep anesthesia. A washout step with 200 mL of saline via the left ventricle was followed by a fixation with 4% (w/v) paraformaldehyde solution in PBS. Brains were then removed and post-fixed in the same solution, overnight at 4 °C, sequentially washed with 10%, 20%, and 30% (w/v) sucrose in PBS, and embedded in Tissue-Tek O.C.T. (Sakura Finetek), before freezing at −80 °C. Brain coronal sections containing the hippocampus were obtained by cryostat sectioning at the level of interaural line +5.7 ± 0.2 mm on real capillary gap microscope slides (Dako).
Apoptotic neurons within the brain sections were detected by using the Terminal deoxynucleotidyl transferase-mediated dUTP Nick-End Labeling (TUNEL) assay (Promega). For this test, 5-µm-thick coronal cryostat brain sections containing the dorsal hippocampal formation were obtained, as described above, and post-fixed with 4% formaldehyde in PBS for 5 min, at room temperature. After washing in PBS for three times, the sections were permeabilized with 0.1 M sodium citrate, pH 6.0, for 1 min at 95 °C, then quickly cooled in ice and washed in PBS for 5 min at room temperature. […]

cerebral ischemia = test system: cerebral ischemia; parameters: method as in PMID 26241908; details: 0.05 and 0.1 mg/kg intraperitoneal at onset of reperfusion; cited from earlier work
[2] = test system: transient forebrain ischemia, hippocampal CA1 and cortical neurons; experiment: Global cerebral ischemia (4VO), neuronal death by Fluoro-Jade B staining; assay type: in vivo, male Wistar rats; details: for maximum neuroprotection (Emax), neuronal death assay: iv at reperfusion onset
Method: as §1
After 5 days of reperfusion (R5d), the animals were euthanized by transcardiac perfusion, under deep anesthesia. […]
Brain cryosections (10 µm thick) from ischemic animals reperfused for 5 days were used after fixation to detect neuronal death by Fluoro-Jade B staining, and visualized by fluorescence microscopy. Labeled (dead) neuronal cells (in green) were counted, as in TUNEL assay (see below). Data from different animals of each experimental group were independently analyzed by two observers, and treatment information was kept concealed throughout the study.

[3] = Pharmacokinetics study, plasma concentration after intravenous bolus (LC-MS/MS); assay type: in vivo, male Wistar rats; details: rat; for clearance / Vd / k el / half-life / Cmax / AUC(0-t) / C0: male, Wistar; for clearance / Vd / k el / half-life / Cmax / AUC(0-t) / C0 / Clast: plasma; for clearance / Vd / k el / Cmax / AUC(0-t) / C0 / Clast: mean ± SE n=6; for clearance: read-out: Cl (terminal clearance) (converted); for Vd: read-out: Vd (volume of distribution); for k el: read-out: kel (terminal elimination constant) (converted); for half-life: iv; for AUC(0-t): read-out: AUC0–8h; for C0: read-out: C0 (initial concentration)
Method: For the study of the variation of the concentration of ISQ-201 in plasma, male Wistar rats (10–12 weeks, Charles River) were randomly divided into three groups (n = 6 per group) and treated intravenously, as a bolus with different concentrations of ISQ-201 (0.07, 0.25, and 1.0 mg/kg, respectively). Plasma samples were taken 0.25, 0.5, 1, 2, 4, and 8 h after the administration and the ISQ-201 concentration was determined by LC–MS/MS analysis. A noncompartmental analysis was performed for the determination of the toxicokinetic parameters, using the Phoenix 64 WinNonlin program (version 8.0). This study was carried out by Swiss BioQuant AG (Reinach, Switzerland).
Study of the variation of ISQ-201 concentration after a single bolus intravenous administration was carried out with different doses of ISQ-201 (0.07, 0.25, and 1.00 mg/kg). Plasma samples were collected 0.25, 0.5, 1, 2, 4, and 8 h after administration, and the ISQ-201 concentration was determined through LC/MS–MS (Figure 7). Pharmacokinetic parameters were calculated through a non-compartmental analysis (Table 2).

[4] = hippocampal CA1, most potent concentration, 5 days of reperfusion

CC(C)[C@H]1CC[C@H]2[C@@H]3CCC4=C/C(=[N+](\C)[O-])CC[C@]4(C)[C@H]3CC[C@]12C [ISQ-201]
cell apoptosis vs vehicle, therapeutic window ([1]; 0.05 mg/kg iv given at 48 h postreperfusion, evaluated at 5 days): did not show significant differences
apoptosis-positive cells vs vehicle, therapeutic window ([1]; 0.05 mg/kg iv given up to and including 6 h postreperfusion, hippocampal and cortical regions, evaluated at 5 days): significantly reduced
apoptotic cells vs vehicle group ([1]; 0.05 and 0.1 mg/kg iv at reperfusion onset, CA1 and cortical regions, 5 days of reperfusion): significant reduction
maximum neuroprotection (Emax), TUNEL assay ([1]; cortex, most potent concentration, 5 days of reperfusion): 81%
maximum neuroprotection (Emax), TUNEL assay [1, 4]: 35%
neuronal death, apoptosis and neurodeficit score (cerebral ischemia): significant decreases
neuronal death vs vehicle, therapeutic window ([2]; 0.05 mg/kg iv given between 0 and 6 h after reperfusion, CA1 and cortex, evaluated at 5 days): significantly decreased
dead neuron number vs vehicle group ([2]; 0.05 and 0.1 mg/kg iv at reperfusion onset, CA1 and cortex, 5 days of reperfusion): significant reduction
maximum neuroprotection (Emax), neuronal death assay ([2]; cortex, most potent concentration, 5 days of reperfusion, vs vehicle = 0%): 80%
maximum neuroprotection (Emax), neuronal death assay [2, 4]: 31%
clearance ([3]; iv bolus 0.07 mg/kg): 1.75 mL/min
Vd ([3]; iv bolus 0.07 mg/kg): 0.364 ± 0.11 L
k el ([3]; iv bolus 0.07 mg/kg): 8.81e-05 s⁻¹
clearance ([3]; iv bolus 0.25 mg/kg): 0.923 mL/min
Vd ([3]; iv bolus 0.25 mg/kg): 0.166 ± 0.027 L
k el ([3]; iv bolus 0.25 mg/kg): 9.53e-05 s⁻¹
clearance ([3]; iv bolus 1.00 mg/kg): 0.895 mL/min
Vd ([3]; iv bolus 1.00 mg/kg): 0.3 ± 0.103 L
k el ([3]; iv bolus 1.00 mg/kg): 7.94e-05 s⁻¹
half-life ([3]; 0.07 mg/kg, iv bolus 0.07 mg/kg, mean ± SE n=6, read-out: t1/2 (half-life) (converted)): 1.66 ± 0.1 h
half-life ([3]; 0.25 mg/kg, iv bolus 0.25 mg/kg, mean ± SE n=6, read-out: t1/2 (half-life) (converted)): 1.51 ± 0.12 h
half-life ([3]; 1 mg/kg, iv bolus 1.00 mg/kg, mean ± SE n=6, read-out: t1/2 (half-life) (converted)): 2.2 ± 0.53 h
half-life ([3]; iv bolus, 0.07–1.00 mg/kg, read-out: half-life): 1.5 to 2 h
Cmax ([3]; iv bolus 0.07 mg/kg): 50.6 ± 7.4 ng/mL
AUC(0-t) ([3]; iv bolus 0.07 mg/kg): 81.1 ± 9.5 ng·h/mL
C0 ([3]; iv bolus 0.07 mg/kg): 74.6 ± 12.2 ng/mL
Cmax ([3]; iv bolus 0.25 mg/kg): 330 ± 51.2 ng/mL
AUC(0-t) ([3]; iv bolus 0.25 mg/kg): 477 ± 42 ng·h/mL
C0 ([3]; iv bolus 0.25 mg/kg): 490 ± 80.2 ng/mL
Cmax ([3]; iv bolus 1.00 mg/kg): 1210 ± 300 ng/mL
AUC(0-t) ([3]; iv bolus 1.00 mg/kg): 2030 ± 429 ng·h/mL
C0 ([3]; iv bolus 1.00 mg/kg): 1690 ± 424 ng/mL
Clast ([3]; iv bolus 0.07 mg/kg): 1.53 ± 0.09 ng/mL
Clast ([3]; iv bolus 0.25 mg/kg): 7.49 ± 0.75 ng/mL
Clast ([3]; iv bolus 1.00 mg/kg): 42.03 ± 4.42 ng/mL
Cmax and AUC0-8h relation to dose ([3]; iv bolus, whole studied range 0.07–1.00 mg/kg): linearly related to the dose
